± gives the standard deviation.
What was measured:
[1] = chemical recovery by SPE of plasma after PDMS sampling; higher = better extraction; conditions: pooled human plasma, extraction method: HLB SPE of plasma after PES
[2] = chemical recovery from spiked human plasma; higher = better extraction; conditions: pooled human plasma
[3] = chemical recovery into PDMS from spiked human plasma; higher = better extraction; conditions: pooled human plasma, extraction method: PES with PDMS
[4] = extraction method: PES+SPE (3 d PDMS equilibration then HLB SPE)
[5] = extraction method: SPE only (HLB 96-well)
[6] = extraction method: SPE only (HLB 96-well), PES comparison experiment
[7] = extraction method: solvent precipitation (ACN + hexane)
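Wherever chemical recovery by SPE of plasma after PDMS sampling is given: over 400 spiked chemicals quantified by LC-HRMS or GC-HRMS via internal standard calibration, recovery relative to spike mix added to unspiked plasma extract to correct matrix effects.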

chemical recovery by SPE of plasma ([1]; equilibration time (d): 1) [%] | chemical recovery by SPE of plasma ([1]; equilibration time (d): 3) [%] | chemical recovery by SPE of plasma ([1]; equilibration time (d): 6) [%] | chemical recovery [2, 5] [%] | chemical recovery [2, 6] [%] | chemical recovery [2, 7] [%] | chemical recovery into PDMS ([3]; equilibration time (d): 1) [%] | chemical recovery into PDMS ([3]; equilibration time (d): 3) [%] | chemical recovery into PDMS ([3]; equilibration time (d): 6) [%] | SMILES | chemical recovery [2, 4] [%]
59.7 ± 9 | 57.3 ± 4.7 | 49.7 ± 6.9 | 50.3 ± 0.97 | 51.8 ± 4.5 | 68.7 ± 3.1 | 5.75 ± 0.43 | 9.79 ± 2.3 | 11.1 ± 1.1 | Cc1cccc(C)c1N(Cn1cccn1)C(=O)C[S+](C)[O-] (configuration not stated) [Metazachlor BH 479-11] | 46 ± 4.5
56.9 ± 8.4 | 63.4 ± 2.8 | 57.2 ± 4.4 | – | 50.4 ± 3.9 | – | – | – | 0.0244 ± 0.042 | Cc1cccc(C)c1N(Cn1cccn1)C(=O)C(=O)O [Metazachlor OA] | –
66.4 ± 8.3 | 66.7 ± 4.1 | 61.6 ± 2.4 | 45.3 ± 8.7 | 54.3 ± 6.8 | 78.8 ± 5.1 | 18.7 ± 0.39 | 20.6 ± 0.91 | 20.7 ± 1.2 | Cc1cc(O)cc(C)c1[S+](C)[O-] (configuration not stated) [Methiocarb-sulfoxide phenol] | –
24.3 ± 8.3 | 21.3 ± 7.1 | 25 ± 8.3 | – | 35.8 ± 1.2 | – | 1.07 ± 0.26 | 1.44 ± 0.31 | 1.24 ± 1.1 | Cn1ncc(N)c(Cl)c1=O [Methyldesphenylchloridazon] | –
– | 104 ± 9.2 | – | 19.9 ± 3.2 | – | 68 ± 24 | 94.1 ± 26 | 98.5 ± 33 | 100 ± 28 | CS(=O)(=O)c1ccccc1 [Methylphenylsulfone] | –
32.4 ± 6.7 | – | 30.3 ± 2.7 | 35.7 ± 1.4 | 54.1 ± 5.2 | 73.7 ± 3.3 | 19 ± 0.56 | 21.5 ± 1.7 | 21 ± 0.44 | CCc1cccc(C)c1N(C(=O)C(=O)O)C(C)COC (configuration not stated) [Metolachlor OA] | 40.1 ± 4.2
– | 27.8 ± 9.2 | 34.7 ± 5.3 | 35.6 ± 3.7 | 22.7 ± 9.6 | – | 1.97 ± 4.4 | 9.48 ± 1.4 | 7.51 ± 7 | CCc1cccc(C)c1N(C(=O)CS(=O)(=O)O)[C@@H](C)C(=O)O [Metolachlor-NOA 413-173] | –
0.659 ± 0.14 | 0.405 ± 0.14 | 0.117 ± 0.082 | 43.2 ± 6.1 | 40.4 ± 10 | 85.3 ± 8.5 | 33.6 ± 2.4 | 34.9 ± 3.2 | 31.5 ± 2.8 | Clc1ccc(COC(Cn2ccnc2)c2ccc(Cl)cc2Cl)c(Cl)c1 (configuration not stated) [Miconazole] | –
15.7 ± 3.1 | 12.5 ± 4.9 | 8.54 ± 5.7 | 71.5 ± 26 | 42.7 ± 8.4 | – | 0.599 ± 0.55 | 1.2 ± 0.35 | 1.01 ± 0.26 | CCCCCCCCCCCCCC[N+](C)(C)[O-] [N,N-Dimethyltetradecylamine-N-oxide] | –
0.241 ± 0.23 | 0.0666 ± 0.015 | 0.0207 ± 0.085 | – | 39.3 ± 8.7 | – | – | 0.0161 ± 0.022 | – | CCCCCCCCCCCCCCN(C)C [N,N-Dimethyltetradecylamine] | –
0.591 ± 0.065 | 0.595 ± 0.073 | 0.297 ± 0.037 | 51.9 ± 3.6 | 42.4 ± 6.5 | 74.8 ± 3.3 | 32.4 ± 2.2 | 34 ± 3 | 34.2 ± 1.6 | c1ccc2sc(NC3CCCCC3)nc2c1 [N-Cyclohexyl-2-benzothiazole-amine] | 98.9 ± 11
19.8 ± 2.8 | 25.7 ± 2.5 | 18.8 ± 3 | 46.9 ± 1.4 | 52.6 ± 6.1 | 68.2 ± 2.2 | 23.5 ± 1.3 | 23.2 ± 2.6 | 26.3 ± 2.6 | CCNS(=O)(=O)c1ccccc1C [N-Ethyl-o-toluenesulfonamide] | 52.7 ± 7.9
2.23 ± 1.6 | 2.7 ± 0.69 | 1.86 ± 0.51 | 45.8 ± 14 | 18.7 ± 4.1 | 83.2 ± 5.3 | 4.16 ± 1.3 | 6.12 ± 3.5 | 6.6 ± 1.1 | c1ccc(Nc2cccc3ccccc23)cc1 [N-Phenyl-1-naphthylamine] | –
7.61 ± 0.89 | 5.18 ± 0.19 | 2.81 ± 0.16 | 42.25 ± 0.22 | 51.5 ± 5.5 | 52.1 ± 2.9 | 13.4 ± 0.56 | 17.4 ± 3.6 | 18.6 ± 1.1 | CCOC(=O)C1=C(C)NC(C)=C(C(=O)OC)C1c1cccc([N+](=O)[O-])c1 (configuration not stated) [Nitrendipin] | 37.1 ± 7.9
– | 4.09 ± 7.1 | 3.48 ± 6 | – | 54.2 ± 6.8 | – | 40.1 ± 2.1 | 46.1 ± 2.3 | 47.6 ± 1.2 | C#C[C@]1(O)CC[C@H]2[C@@H]3CCC4=CC(=O)CC[C@@H]4[C@H]3CC[C@@]21C [Norethindrone] | –

SMILES | chemical recovery by SPE of plasma ([1]; equilibration time (d): 1) [%] | chemical recovery by SPE of plasma ([1]; equilibration time (d): 3) [%] | chemical recovery by SPE of plasma ([1]; equilibration time (d): 6) [%] | chemical recovery [2, 5] [%] | chemical recovery [2, 6] [%] | chemical recovery [2, 7] [%] | chemical recovery into PDMS ([3]; equilibration time (d): 1) [%] | chemical recovery into PDMS ([3]; equilibration time (d): 3) [%] | chemical recovery into PDMS ([3]; equilibration time (d): 6) [%] | chemical recovery [2, 4] [%]
Cc1cccc(C)c1N(Cn1cccn1)C(=O)CCl [Metazachlor] | 1.5 ± 0.11 | 1.57 ± 0.29 | 0.82 ± 0.13 | 38.6 ± 2.5 | 53.5 ± 7.4 | 66.2 ± 2.7 | 40.1 ± 1.9 | 42.9 ± 2.5 | 42.7 ± 2.1 | 42.8 ± 5
CC1(C)CCC(Cc2ccc(Cl)cc2)C1(O)Cn1cncn1 (configuration not stated) [Metconazole] | 2.06 ± 0.36 | 1.76 ± 0.4 | 1.11 ± 0.42 | – | 46.3 ± 8.6 | 74.3 ± 3.4 | 39.4 ± 2.5 | 41.9 ± 2.7 | 41.91 ± 0.15 | –
CCc1cccc(C)c1N(C(=O)CCl)C(C)COC (configuration not stated) [Metolachlor] | 0.504 ± 0.043 | 0.63 ± 0.12 | 0.323 ± 0.0041 | 38.1 ± 1.9 | 47.6 ± 6.7 | – | 37.3 ± 1.4 | 40.7 ± 3.2 | 40.6 ± 1.1 | 37.9 ± 5.3
CSc1nnc(C(C)(C)C)c(=O)n1N [Metribuzin] | 10.9 ± 1.3 | 15.3 ± 1.4 | 10.4 ± 1.8 | 49 ± 2.9 | 54.2 ± 7.9 | 71.8 ± 2.9 | 25 ± 2.2 | 25.2 ± 1.9 | 29.4 ± 1.2 | 49.7 ± 7.4
CN(C)c1ccc(C(=O)c2ccc(N(C)C)cc2)cc1 [Michler's ketone] | 1.38 ± 0.41 | 1.1 ± 0.12 | 0.502 ± 0.091 | 34.4 ± 1.9 | – | – | 17.2 ± 9.7 | 15.5 ± 10 | 16.7 ± 4.2 | –
CC[C@@]1([C@@H]2O[C@@H]([C@H]3O[C@@](O)(CO)[C@H](C)C[C@@H]3C)C[C@@H]2C)CC[C@H]([C@]2(C)CC[C@]3(C[C@H](O)[C@@H](C)[C@@H]([C@@H](C)[C@@H](OC)[C@H](C)C(=O)O)O3)O2)O1 [Monensin] | 3.19 ± 0.8 | 2.26 ± 0.39 | 1.33 ± 0.27 | – | 29.9 ± 6.6 | 1.03 ± 1.8 | 37.1 ± 2.8 | 38.6 ± 0.52 | 37.8 ± 2.2 | –
CCCCC(C#N)(Cn1cncn1)c1ccc(Cl)cc1 (configuration not stated) [Myclobutanil] | 1.71 ± 0.26 | 1.32 ± 0.3 | – | – | 48.5 ± 8.4 | 79.3 ± 2.2 | 38.4 ± 1.9 | 42.1 ± 3.6 | 41.6 ± 0.64 | –
c1ccc2c(c1)[nH]c1cnccc12 [Norharmane] | 3.67 ± 0.43 | 2.75 ± 0.47 | 1.79 ± 0.061 | 39.6 ± 7.7 | 48 ± 6.7 | 77.7 ± 5.3 | 24.8 ± 1.2 | 28.3 ± 0.84 | 29 ± 1.6 | 25.1 ± 5.9
CNC(=O)CSP(=O)(OC)OC [Omethoate] | – | 13.5 ± 2.3 | – | 12.4 ± 5.1 | 40.1 ± 8.6 | – | 4.04 ± 3.2 | 5.92 ± 3.5 | 5.94 ± 4.2 | –
CCCN(CCC)c1c([N+](=O)[O-])cc(S(N)(=O)=O)cc1[N+](=O)[O-] [Oryzalin] | 39.2 ± 5.2 | 33.9 ± 3 | 27.7 ± 1.7 | – | 49.6 ± 5.5 | – | 6.21 ± 0.56 | 10 ± 0.76 | 11.1 ± 1.2 | –
O=C1Nc2ccc(Cl)cc2C(c2ccccc2)=NC1O (configuration not stated) [Oxazepam] | 29.1 ± 4 | 30.4 ± 2.4 | 27.7 ± 1.9 | 38 ± 3.2 | 46.6 ± 6 | 73.9 ± 3.5 | 1.81 ± 0.18 | 3.65 ± 0.36 | 3.9 ± 0.52 | 41.3 ± 2.3

From the supplement of paper PMC10702517
